Blank lines part the entries; values can stand above or below the molecule they belong to. No end group written: not given here. *: point of attachment. Biotin = O=C1N[C@H]2[C@H](CS[C@H]2CCCCC(=O)*)N1
How the values were obtained:
S. aureus (ATCC 29213) = assay: Wiffle ball (tissue cage) S. aureus infection model in rabbits; type: in vivo; details: day 2 after inoculation with 6.2 log 10 CFUs, immunized rabbits
Description: In order to test the capacity of cleavage site specific antibodies to rescue cleaved IgGs in vivo, a model for bacterial infection employing a “tissue cage” (Fernandez J A, et. al. (1997) Antimicrob. Agents Chemother. 43(3):667-671) was adopted. In this system, a wiffle ball is surgically implanted subcutaneously in the dorsal cervical area. The model allows the infectious agents to be localized within an easily accessible fluid compartment, a tissue pouch, and has been used to assess the efficacy of antibiotics against bacteria.
In the final phase of the study, the immunized and non-immunized rabbits were inoculated with 6.2 log 10 colony forming units (CFUs) of S. aureus (ATCC 29213) directly into the wiffle-ball compartments.
The bacterial counts and test subject viability were monitored over the course of two weeks for bacterial counts and survival. The data shown in FIG. 13 indicate that during the first week of the study, the average bacterial counts for control animals were several logs higher than cleavage site specific vaccinated animals. For example, on day 2 the control had 7.2 log10 CFU/ml wiffle ball fluid while the immunized group had 5.2 log10 CFU/ml wiffle ball fluid.

human IgG1 = assay: Proteinase digestion of purified IgG1, Agilent biosizing; type: biochemical; details: for disappearance of intact IgG (160,000 Da): Mab1, 1% w/w enzyme, 37° C.
Chain of human IgG1 (P01857 99-224 limits assumed): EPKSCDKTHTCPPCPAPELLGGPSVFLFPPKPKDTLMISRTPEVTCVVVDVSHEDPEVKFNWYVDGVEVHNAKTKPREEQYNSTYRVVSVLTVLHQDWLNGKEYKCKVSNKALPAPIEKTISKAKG
Protocol: A purified monoclonal antibody comprising a human IgG heavy chain was contacted with the proteases described and sampling was conducted over various durations of contact. Fragmentation in the samples was evaluated using the Agilent microfluidics “lab-on-a-chip” technology for in vitro biosizing (Goetz H et al. Biochemical and Biophysical Methods 60; 281-293, 2004).
Proteinase digestions of purified IgGs were carried out at pH 7.5 in phosphate-buffered saline (PBS) or, for the metalloproteinases, in Tris-buffered saline buffer at 37° C. Calcium chloride was included in the metalloproteinase reactions at 1 mM for MMP-12 and 10 mM for MMP-3; otherwise no additives were used. Antibody concentrations were typically 1 or 2 mg/mL and reactions were initiated by addition of enzyme to a 1% (w/w) ratio to IgG. Aliquots (10-20 μL) were removed at indicated times and the reactions were stopped either by adjustment to 20 mM EDTA (metalloproteinase incubations) or to 1 mM iodoacetamide (cysteine proteinases) or by rapid freezing.
The major proteolytic cleavage positions in the IgG1 hinge were identified for enzyme-generated fragments by N-terminal sequencing of the purified Fc fragment (MMP-3 and MMP-12) and/or high resolution mass spectrometric analyses of the purified Fab (neutrophil elastase, plasmin) and F(ab′)2 (cathepsin G, glutamyl endopeptidase and IdeS) fragments. Fragmentation was evaluated using the Agilent microfluidics “lab-on-a-chip” technology.

[1] = system: Fab fragment of the 2095-2 antibody; details: Biacore, 25° C., 1:1 (Langmuir) model
Protocol: The specificity of binding was further examined using a Fab fragment of the 2095-2 antibody using a surface plasmon resonance platform (Biacore). Briefly, the Fab was immobilized to a CM5 sensor chip in a Biacore 2000 at three different surface densities (8500, 1650, and 350 RU) using standard NHS/EDC coupling. The running buffer contained 10 mM HEPES pH 7.4, 150 mM NaCl, and 0.01% Tween-20. Data were collected at 25° C.
Three N-terminally biotinylated peptides were tested for binding of to the immobilized Fab: WT, representing the expected sequence of a peptide fragment from a human IgG1 cleavage site after cleavage by the Streptococcus pyogenes IdeS protease; E233A, representing a variant of having a single alanine substitution at the amino acid residue four positions upstream of the C-terminus; and L234A, a variant having a single alanine substitution at the amino acid residue three positions upstream from the C-terminus. The peptides were modified by substituting serine for cysteine to make them compatible with the coupling chemistry and preserve the monomeric structure.
Peptides Wild type and E233A were tested in a 3-fold dilution series using 588 nM and 2.9 uM as the highest concentration, respectively. Peptide L234A was tested at 14.7 uM as the highest concentration in a 2-fold dilution series. Each peptide concentration series was tested in triplicate over the three different density Fab surfaces. The association and dissociation were monitored for 1 minute. Surfaces were regenerated with a 12 second injection of 1/500 dilution of phosphoric acid.

[2] = system: platelet surface IIb/III3 receptors; assay: Platelet aggregation assay; type: cell-based; details: 5 μM adenosine diphosphate (ADP), compared with intact c7E3 IgG
Protocol: c7E3 inhibits platelet aggregation by binding to platelet surface IIb/III3 receptors—thereby blocking the ability of fibrinogen to bind to the receptors on activated platelets and to clump them together. The respective inhibitory profiles of intact and single-cleaved c7E3 IgG were tested in a platelet aggregation assay. Platelet aggregation is measured as an increase of light transmission through a platelet suspension after activation with a physiological agonist. The inhibition is compared to control aggregation to 5 μM adenosine diphosphate (ADP). The percent inhibition was calculated as: control aggregation−test aggregation×100%, divided by control aggregation.

platelets [3] = assay: Restoration of function study in dogs, platelet counts; type: in vivo; details: c7E3 variants 0.05 mg/kg, mAb 2095-2 0.5 mg/kg after 10 min delay, groups of 3 animals
Protocol: To be consistent with the prior experiments, the variants of c7E3 were all administered at the 0.05 mg/kg dose. The unique aspect of the experiment (groups 6 and 7) involves the infusion of the first targeting mAb followed by the cleavage site specific mAb after a 10 minute delay. The cleavage site specific IdeS cleavage site mAb, 2095-2, was administered at 0.5 mg/kg; 10-fold higher than the dose used for all of the c7E3 variants. The higher dose was chosen in order to maximize the complexation of cleavage site specific mAb with platelet-bound c7E3 variants. All mAbs were delivered by slow infusion over a 20 minute period. Platelet counts were monitored over a 96-hour period. The platelet counts were normalized to the pre-dose count within each animal for clarity of presentation and to minimize the normal variability in numerical platelet counts in these small 3-animal groups.

platelets [4] = assay: Test infusions of c7E3 IgG in dogs, platelet depletion; type: in vivo; details: 0.05 mg/kg dose, calculated
Description: First, the c7E3 antibody antigen binding and platelet depletion parameters were established in dogs.

platelets [5] = assay: Platelet counts in dogs, intact versus single-cleaved c7E3 IgG; type: in vivo; details: 0.05 mg/kg
Protocol: c7E3 IgG and c7E3 IgG single-cleaved by IdeS protease were also compared in vivo. Three groups of 5 animals received either saline control, intact c7E3 IgG (0.05 mg/kg) or c7E3 single-cleaved IgG (0.05 mg/kg). Platelet counts were monitored at baseline and at 2, 24, 48, 72 and 96 hours post-administration. Limiting the study to 5 days minimized the likelihood of anti-c7E3 immune responses that might confound the interpretation of the results. The results are presented in FIG. 3 as the mean platelet count±SD for each animal group at each time point. The extent of the error bars connotes the normal variability of platelet counts in different animals (for example, the predose counts for the 5 animals in the single-cleaved IgG treatment group were 175,000, 355,000, 305,000, 276,000 and 334,000 per μL, respectively).

Molecule: C-T-S-P-P-S-P-S-P-A-P-E (CTSPPSPSPAPE; also: conjugated to KLH) [GluV8-cleavage site peptide analogue]
bacterial count (S. aureus (ATCC 29213)): 5.2 log10 CFU/ml wiffle ball fluid

Major Product (human IgG1; human IgG1, None denotes no detectable cleavage in 24 hours): None
Molecule: Tryptase: human serine endopeptidase

Molecule: Biotin-TSPPSPAPEALG [L234A]
ka(M-1s-1) × 10^−5 [1]: 1.24 ± 0.01 M-1s-1 × 10^−5
kd [1]: 1.03 ± 0.01 s⁻¹

Molecule: Glutamyl endopeptidase I (Glu V8 protease): Staph. aureus serine endopeptidase
disappearance of intact IgG (160,000 Da) (human IgG1): several hours

Molecule: c7E3 sc IgG: c7E3 IgG single-cleaved by IdeS protease
binding/inhibition of platelet aggregation after single lower hinge cleavage [2]: no loss of binding/inhibition
effect on platelet numbers (platelets [3]): without effect on platelet numbers

Molecule: Biotin-TSPPSPAPELLG [Wt]
ka(M-1s-1) × 10^−5 [1]: 5.22 ± 0.04 M-1s-1 × 10^−5
kd [1]: 0.00443 ± 0.02 s⁻¹

Molecule: Biotin-TSPPSPAPALLG [E233A]
ka(M-1s-1) × 10^−5 [1]: 7.29 ± 0.03 M-1s-1 × 10^−5
kd [1]: 0.1070 ± 0.04 s⁻¹

disappearance of intact IgG (160,000 Da) (human IgG1): several hours
Molecule: Stromelysin (MMP-3): human metalloendopeptidase

B1: c7E3 IgG: anti-platelet integrin (αIIbβIIIa) murine-human IgG1 chimeric antibody (antibody, chains of the INN, looked up, V domains shown)
VH: EVQLQQSGTVLARPGASVKMSCEASGYTFTNYWMHWVKQRPGQGLEWIGAIYPGNSDTSYIQKFKGKAKLTAVTSTTSVYMELSSLTNEDSAVYYCTLYDGYYVFAYWGQGTLVTVSA
VL: EIVLTQSPVTLSVTPGDSVSLSCRASRDISNNLHWFQQTSHESPRLLIKYASQSMSGIPSRFSGSGSGTDFTLSINSVETEDFGMYFCQQTNSWPYTFGGGTKLEIK
modifications: IgG1
notes: anti-platelet integrin (αIIbβIIIa) murine-human IgG1 chimeric antibody
αIIbβ3 receptor blockade (platelets [4]): about 5%
nadir of platelet numbers (platelets [5]): 24 h
recovery of platelet counts (platelets [5]; by 96 hours): approximately 50 % of the pre-dose level
effect on platelet numbers (platelets [5]; groups of 5 animals, 96-hour monitoring): substantial decrease of platelet numbers

B2: c7E3 F(ab′)2: F(ab′)2 of c7E3 prepared using the bacterial enzyme IdeS (antibody, chains of the INN, looked up, V domains shown)
VH: EVQLQQSGTVLARPGASVKMSCEASGYTFTNYWMHWVKQRPGQGLEWIGAIYPGNSDTSYIQKFKGKAKLTAVTSTTSVYMELSSLTNEDSAVYYCTLYDGYYVFAYWGQGTLVTVSA
VL: EIVLTQSPVTLSVTPGDSVSLSCRASRDISNNLHWFQQTSHESPRLLIKYASQSMSGIPSRFSGSGSGTDFTLSINSVETEDFGMYFCQQTNSWPYTFGGGTKLEIK
modifications: F(ab')2 IdeS-generated
notes: F(ab′)2 of c7E3 prepared using the bacterial enzyme IdeS
effect on platelet numbers (platelets [3]): without effect on platelet numbers
